# Active and inactive are the calls of the source.
# How the values were obtained:
# [1] = Luminescence Cell-Based Dose Retest to Confirm Inhibitors of Cancer Stem Cells. [Related pubchem assays (depositor defined):AID2717, AID2721]; format: functional; details: Homo sapiens
# [2] = viability of uninfected HEp-2 cells – cell-based, HTS, cytotoxicity control for RSV inhibitor project, dose response (AID 2410); format: functional; details: human respiratory syncytial virus
# Streptokinase A = biological target: T1, Streptokinase A (Streptococcus pyogenes serotype M1, UniProt P10520); assay: viability-normalized secreted streptokinase activity reduction – plasminogen activation absorbance, OD405, dose response (AID 1914); format: functional, Streptococcus pyogenes M1 GAS;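 note: secreted streptokinase activity via plasminogen activation per viability signal from cell pellet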
# T1 sequence (P10520 whole entry): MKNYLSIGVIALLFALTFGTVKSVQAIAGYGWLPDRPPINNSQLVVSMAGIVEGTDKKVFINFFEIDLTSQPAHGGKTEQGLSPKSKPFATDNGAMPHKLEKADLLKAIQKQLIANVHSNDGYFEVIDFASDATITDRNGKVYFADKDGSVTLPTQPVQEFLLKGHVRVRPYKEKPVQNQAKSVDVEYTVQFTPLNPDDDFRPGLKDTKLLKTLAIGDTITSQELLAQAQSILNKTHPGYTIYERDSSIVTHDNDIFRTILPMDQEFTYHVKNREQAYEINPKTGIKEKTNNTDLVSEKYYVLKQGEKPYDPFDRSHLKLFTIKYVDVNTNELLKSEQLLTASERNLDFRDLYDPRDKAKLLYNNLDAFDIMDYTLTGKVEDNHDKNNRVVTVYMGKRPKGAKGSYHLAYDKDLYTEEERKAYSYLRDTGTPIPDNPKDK
# [3] = viability of HCT116 lacking mutant beta-catenin – cell-based, human colon tumor, dose response (AID 1045); format: functional;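 note: HCT116 colon tumor cells with beta catenin knocked out; cells exposed to compound for 60 hours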
# [4] = viability of PTEN-deleted HCT116 cells – cell-based, HCT116 PTEN knockout, dose response (AID 1047); format: functional;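 note: HCT116 colon tumor cells with PTEN knocked out; cells exposed to compound for 60 hours before readout; potency for loss of cell viability measured by luminescence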
# [5] = tested on: Streptococcus sp. 'group A'; assay: Streptococcus pyogenes SK(-)GAS viability under kanamycin – luminescence, BacTiterGlo, confirmation, counter-screen for streptokinase expression inhibitor project, dose response (AID 1900); format: functional, organism-based
# Streptococcus = assay: GAS UMAA2166 growth inhibition – luminescence, BacTiterGlo, counter-screen for streptokinase expression inhibitor project, dose response (AID 1915); format: functional, organism-based;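 note: potency for reduction of bacterial viability or growth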
# Cytochrome P450 2C9 = Cytochrome P450 2C9 (Homo sapiens, UniProt P11712)
# Sequence of Cytochrome P450 2C9 (P11712 whole entry): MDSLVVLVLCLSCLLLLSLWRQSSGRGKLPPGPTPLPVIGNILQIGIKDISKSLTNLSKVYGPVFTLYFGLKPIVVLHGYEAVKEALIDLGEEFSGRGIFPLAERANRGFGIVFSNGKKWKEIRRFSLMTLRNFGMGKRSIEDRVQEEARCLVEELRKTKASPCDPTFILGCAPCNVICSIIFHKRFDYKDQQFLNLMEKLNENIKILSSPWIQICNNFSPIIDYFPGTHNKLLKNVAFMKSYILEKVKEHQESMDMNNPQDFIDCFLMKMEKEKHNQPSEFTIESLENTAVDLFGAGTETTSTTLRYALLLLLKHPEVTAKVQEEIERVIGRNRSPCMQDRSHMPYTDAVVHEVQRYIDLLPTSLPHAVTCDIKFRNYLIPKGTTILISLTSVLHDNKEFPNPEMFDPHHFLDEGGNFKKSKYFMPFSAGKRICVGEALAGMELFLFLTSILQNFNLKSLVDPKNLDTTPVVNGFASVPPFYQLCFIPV
# Cytochrome P450 2D6 = Cytochrome P450 2D6 (Homo sapiens, UniProt P10635);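 note: CYP2D6 member of a cytochrome P450 panel assay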
# Sequence of Cytochrome P450 2D6 (P10635 whole entry): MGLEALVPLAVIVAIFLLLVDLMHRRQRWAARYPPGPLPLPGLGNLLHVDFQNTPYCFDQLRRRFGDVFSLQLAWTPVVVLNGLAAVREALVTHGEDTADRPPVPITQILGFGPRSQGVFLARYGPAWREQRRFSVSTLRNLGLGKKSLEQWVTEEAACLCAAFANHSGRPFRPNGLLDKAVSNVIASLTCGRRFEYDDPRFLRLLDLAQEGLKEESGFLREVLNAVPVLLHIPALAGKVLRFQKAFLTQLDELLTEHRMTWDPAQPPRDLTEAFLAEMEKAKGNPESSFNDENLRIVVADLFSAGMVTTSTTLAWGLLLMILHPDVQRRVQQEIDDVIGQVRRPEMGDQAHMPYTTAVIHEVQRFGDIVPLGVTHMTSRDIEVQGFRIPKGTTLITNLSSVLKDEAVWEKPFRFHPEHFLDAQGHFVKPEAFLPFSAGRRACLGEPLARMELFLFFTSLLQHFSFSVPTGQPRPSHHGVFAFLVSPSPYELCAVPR
# Cytochrome P450 1A2 = biological target: T2, Cytochrome P450 1A2 (Homo sapiens, UniProt P05177);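 note: PubChem cytochrome P450 panel assay, CYP1A2 panel member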
# T2 sequence (P05177 whole entry): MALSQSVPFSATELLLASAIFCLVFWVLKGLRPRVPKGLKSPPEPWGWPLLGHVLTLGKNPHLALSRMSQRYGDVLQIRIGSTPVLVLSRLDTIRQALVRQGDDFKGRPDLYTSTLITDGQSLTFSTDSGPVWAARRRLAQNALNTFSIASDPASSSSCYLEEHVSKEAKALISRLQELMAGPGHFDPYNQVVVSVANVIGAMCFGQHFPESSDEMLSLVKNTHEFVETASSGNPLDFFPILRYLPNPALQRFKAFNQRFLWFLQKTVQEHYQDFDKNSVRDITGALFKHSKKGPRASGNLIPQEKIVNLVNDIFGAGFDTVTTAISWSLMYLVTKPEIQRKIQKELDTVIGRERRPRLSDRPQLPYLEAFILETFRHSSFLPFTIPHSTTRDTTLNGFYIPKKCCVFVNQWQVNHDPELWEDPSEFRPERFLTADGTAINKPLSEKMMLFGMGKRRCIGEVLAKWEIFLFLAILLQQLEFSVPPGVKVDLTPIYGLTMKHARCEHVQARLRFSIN
# Cytochrome P450 3A4 = Cytochrome P450 3A4 (Homo sapiens, UniProt P08684);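 note: CYP3A4 tested as one member of a cytochrome P450 panel screen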
# Sequence of Cytochrome P450 3A4 (P08684 whole entry): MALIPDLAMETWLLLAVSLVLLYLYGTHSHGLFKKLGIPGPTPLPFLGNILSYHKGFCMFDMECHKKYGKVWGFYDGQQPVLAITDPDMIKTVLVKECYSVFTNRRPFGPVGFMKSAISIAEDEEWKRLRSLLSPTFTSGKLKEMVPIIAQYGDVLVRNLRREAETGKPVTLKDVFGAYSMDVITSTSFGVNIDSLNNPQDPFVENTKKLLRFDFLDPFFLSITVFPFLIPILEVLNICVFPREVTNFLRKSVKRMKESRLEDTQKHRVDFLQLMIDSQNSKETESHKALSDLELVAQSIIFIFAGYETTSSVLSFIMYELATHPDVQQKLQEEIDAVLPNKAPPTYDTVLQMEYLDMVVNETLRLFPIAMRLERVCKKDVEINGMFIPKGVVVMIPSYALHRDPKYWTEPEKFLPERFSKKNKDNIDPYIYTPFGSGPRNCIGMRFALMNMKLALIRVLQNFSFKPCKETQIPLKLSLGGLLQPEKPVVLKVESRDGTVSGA
# Large T antigen = Large T antigen (Simian virus 40, UniProt P03070); format: functional, Betapolyomavirus macacae;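 note: Confirmatory-stage PubChem screen for compounds that inhibit SV40 T antigen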
# Sequence of Large T antigen (P03070 whole entry): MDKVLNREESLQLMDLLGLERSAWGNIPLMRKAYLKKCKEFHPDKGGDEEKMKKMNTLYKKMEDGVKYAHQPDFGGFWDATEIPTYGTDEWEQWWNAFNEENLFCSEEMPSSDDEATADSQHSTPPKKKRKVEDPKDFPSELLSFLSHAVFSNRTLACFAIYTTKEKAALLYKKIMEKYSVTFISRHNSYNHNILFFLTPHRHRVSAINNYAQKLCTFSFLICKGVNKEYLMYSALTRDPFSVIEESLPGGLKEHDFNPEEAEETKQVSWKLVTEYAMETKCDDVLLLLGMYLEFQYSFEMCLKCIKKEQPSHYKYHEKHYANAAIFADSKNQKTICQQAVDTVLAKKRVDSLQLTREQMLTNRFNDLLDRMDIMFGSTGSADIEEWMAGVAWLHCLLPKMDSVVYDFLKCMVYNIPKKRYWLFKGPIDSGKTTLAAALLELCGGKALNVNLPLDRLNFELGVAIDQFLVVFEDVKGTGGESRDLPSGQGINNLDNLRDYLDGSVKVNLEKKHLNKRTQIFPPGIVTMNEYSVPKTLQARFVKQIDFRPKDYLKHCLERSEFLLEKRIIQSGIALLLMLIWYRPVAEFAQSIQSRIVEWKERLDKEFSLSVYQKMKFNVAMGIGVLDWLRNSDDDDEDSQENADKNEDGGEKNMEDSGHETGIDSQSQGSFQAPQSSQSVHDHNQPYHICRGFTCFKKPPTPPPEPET
# [6] = biological target: T3, Rac GTPase-activating protein 1 (Homo sapiens, UniProt Q9H0H5); assay: blockers of MgcRacGAP-driven Rac1 GTP hydrolysis – biochemical, ADP Hunter fluorescence, primary and confirmatory, confirmation (AID 624330); format: functional
# T3 sequence (Q9H0H5 whole entry): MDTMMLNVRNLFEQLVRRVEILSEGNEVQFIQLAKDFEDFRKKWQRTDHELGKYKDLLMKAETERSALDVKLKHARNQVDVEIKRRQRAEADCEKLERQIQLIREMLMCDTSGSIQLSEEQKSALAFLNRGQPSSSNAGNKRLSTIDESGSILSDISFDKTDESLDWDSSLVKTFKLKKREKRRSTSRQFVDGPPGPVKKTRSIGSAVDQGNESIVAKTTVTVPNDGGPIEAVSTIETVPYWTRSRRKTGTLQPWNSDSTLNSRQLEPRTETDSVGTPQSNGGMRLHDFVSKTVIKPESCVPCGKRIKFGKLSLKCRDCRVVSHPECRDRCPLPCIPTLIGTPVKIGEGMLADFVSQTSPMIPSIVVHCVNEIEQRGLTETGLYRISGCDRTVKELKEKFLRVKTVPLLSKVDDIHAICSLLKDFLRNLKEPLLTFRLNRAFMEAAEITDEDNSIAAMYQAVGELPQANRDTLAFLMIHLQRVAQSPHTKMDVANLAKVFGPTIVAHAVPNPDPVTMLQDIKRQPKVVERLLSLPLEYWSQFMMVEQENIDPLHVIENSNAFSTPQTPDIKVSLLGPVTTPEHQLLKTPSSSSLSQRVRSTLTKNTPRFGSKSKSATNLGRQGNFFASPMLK
# [7] = biological target: T4, Replicative DNA helicase DnaB (Mycobacterium tuberculosis, UniProt P9WMR3); assay: DnaB intein splicing inhibitors, dose response, biochemical, cell-free fluorescence (AID 449749); format: functional
# T4 sequence (P9WMR3 whole entry): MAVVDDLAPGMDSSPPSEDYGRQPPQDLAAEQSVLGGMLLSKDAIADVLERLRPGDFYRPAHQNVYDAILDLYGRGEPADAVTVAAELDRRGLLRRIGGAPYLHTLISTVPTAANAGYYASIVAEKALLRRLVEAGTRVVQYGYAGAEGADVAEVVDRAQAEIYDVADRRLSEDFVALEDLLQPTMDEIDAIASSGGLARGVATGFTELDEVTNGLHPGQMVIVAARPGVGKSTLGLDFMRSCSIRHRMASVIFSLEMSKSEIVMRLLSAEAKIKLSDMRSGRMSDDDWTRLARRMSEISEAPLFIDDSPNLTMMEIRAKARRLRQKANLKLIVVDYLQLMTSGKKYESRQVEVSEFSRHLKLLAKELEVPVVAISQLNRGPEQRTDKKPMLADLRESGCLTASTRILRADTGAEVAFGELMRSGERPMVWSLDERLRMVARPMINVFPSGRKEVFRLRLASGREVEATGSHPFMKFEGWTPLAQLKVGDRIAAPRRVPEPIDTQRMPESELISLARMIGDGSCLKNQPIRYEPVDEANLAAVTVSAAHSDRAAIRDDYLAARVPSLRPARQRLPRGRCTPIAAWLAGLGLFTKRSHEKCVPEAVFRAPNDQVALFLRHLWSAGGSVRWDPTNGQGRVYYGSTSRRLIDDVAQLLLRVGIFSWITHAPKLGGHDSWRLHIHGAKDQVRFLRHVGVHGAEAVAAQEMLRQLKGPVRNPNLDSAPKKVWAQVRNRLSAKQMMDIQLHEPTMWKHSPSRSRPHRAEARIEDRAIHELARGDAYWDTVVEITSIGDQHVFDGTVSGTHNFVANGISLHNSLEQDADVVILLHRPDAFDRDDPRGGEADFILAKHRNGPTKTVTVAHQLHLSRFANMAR
# Protein RecA = biological target: T5, Protein RecA (Mycobacterium tuberculosis, UniProt P9WHJ3); assay: Fluorescence Cell-Free Homogeneous Dose Retest to Identify Inhibitors of RecA-Intein Splicing Activity. [Related pubchem assays (depositor defined):AID2097, AID2223, AID489010, AID492950]; format: functional
# T5 sequence (P9WHJ3 whole entry): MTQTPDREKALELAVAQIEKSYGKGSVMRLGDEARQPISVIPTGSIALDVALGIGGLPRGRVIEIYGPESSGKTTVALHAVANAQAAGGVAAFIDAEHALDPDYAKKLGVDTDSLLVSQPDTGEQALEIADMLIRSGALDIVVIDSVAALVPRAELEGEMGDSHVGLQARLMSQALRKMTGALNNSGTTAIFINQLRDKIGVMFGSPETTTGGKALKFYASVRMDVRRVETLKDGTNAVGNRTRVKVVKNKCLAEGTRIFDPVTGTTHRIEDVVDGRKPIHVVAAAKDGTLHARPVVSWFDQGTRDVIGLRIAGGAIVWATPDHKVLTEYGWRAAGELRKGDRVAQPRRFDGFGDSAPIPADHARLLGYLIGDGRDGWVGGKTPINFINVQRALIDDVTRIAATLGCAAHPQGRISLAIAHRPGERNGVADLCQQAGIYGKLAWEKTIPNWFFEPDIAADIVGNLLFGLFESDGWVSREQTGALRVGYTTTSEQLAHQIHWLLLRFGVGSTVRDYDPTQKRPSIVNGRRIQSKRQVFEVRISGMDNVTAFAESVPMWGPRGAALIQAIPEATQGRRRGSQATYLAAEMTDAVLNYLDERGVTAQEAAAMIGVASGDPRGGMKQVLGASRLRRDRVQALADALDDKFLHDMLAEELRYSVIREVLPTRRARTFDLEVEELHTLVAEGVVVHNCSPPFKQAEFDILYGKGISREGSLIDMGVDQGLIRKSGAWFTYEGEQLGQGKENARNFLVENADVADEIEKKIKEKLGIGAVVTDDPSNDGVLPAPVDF
# INS1 = assay: INS-1E survival protection against cytokine death – cell-based, luminescence, retest, dose response (AID 449756); format: functional; details: Rattus norvegicus, INS1;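 note: cell death triggered by IL-1 beta plus TNF-alpha plus IFN-gamma mixture; protective hits raise ATP signal compared with cytokine alone wells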
smiles,measurement,setting,value
O=C(CN(c1cccc(C(F)(F)F)c1)S(=O)(=O)c1ccc(Cl)c([N+](=O)[O-])c1)NCc1ccccc1Cl,AC50,[1],1.72 µM (active)
same,CC50,[2],> 50 µM (active)
CCS(=O)(=O)Nc1ccc(-c2cc(-c3ccccc3)c3cc(C)ccc3n2)cc1,EC50,Streptokinase A,> 150 µM (not active)
same,EC50,[3],24.1 µM (active)
same,EC50,[4],27.6 µM (active)
same,EC50,[5],7.31 µM (active)
same,EC50,Streptococcus,7.65 µM (active)
same,AC50,[1],3.42 µM (active)
CCN(CC)S(=O)(=O)c1cccc(NC(=O)c2cc3ccccc3o2)c1,CC50,[2],10.9 µM (active)
COc1ccc(NC(=O)CSc2nc3ccccc3cc2Cc2ccccc2)cc1,AC50,Cytochrome P450 2C9,1.26 µM (inconclusive)
same,AC50,Cytochrome P450 2D6,0.2 µM (inconclusive)
CN1CCN(c2ncncc2-c2ccccc2C(F)(F)F)CC1,AC50,Cytochrome P450 1A2,31.6 µM (inconclusive)
same,AC50,Cytochrome P450 3A4,3.98 µM (inconclusive)
same,AC50,Cytochrome P450 2D6,20 µM (inconclusive)
Clc1cccc(Nc2nnc(-c3ccccc3)c3ccccc23)c1,AC50,Cytochrome P450 3A4,7.94 µM (inconclusive)
same,AC50,Cytochrome P450 2D6,2 µM (inconclusive)
CCOc1cc(/C=C2/NC(=O)N(CC(=O)OC)C2=O)ccc1O,IC50,Large T antigen,12.5 µM (active)
Cc1nc(Cl)cc(N/N=C/c2ccc(O)cc2)n1,IC50,Large T antigen,8.13 µM (active)
C/C(CC(=O)Nc1ccc(N(C)C)cc1)=N\NC(=O)c1ccc([N+](=O)[O-])cc1Cl,IC50,[6],66.7 µM (active)
same,IC50,Large T antigen,9.88 µM (active)
O=C(Nc1ccccc1)Nc1ccc(O)c2ccccc12,AC50,[7],9.08 µM (active)
same,AC50,[1],2.56 µM (active)
same,EC50,Protein RecA,0.762 µM (active)
COc1cc(/C=N\NC(=O)c2c(C)nc3cc(C)ccn23)ccc1O,IC50,[6],33.3 µM (active)
same,IC50,Large T antigen,13.4 µM (active)
COc1ccc(-c2c([C@H]3[C@H]4C=CC[C@@H](C)[C@@H]4C(=O)N3Cc3ccccc3)ccc3ccccc23)cc1,AC50,INS1,9.01 µM (active)
Cc1c(C(=O)N(CCc2ccccc2)Cc2ccccc2)cccc1[N+](=O)[O-],CC50,[2],25.5 µM (active)
O=C(Nc1ccc(Cl)c(Cl)c1)Nc1nnc(CC2=CCCCC2)s1,AC50,INS1,3.51 µM (active)
CCc1ccc(Nc2cnn(-c3nc4ccccc4s3)c(=O)c2Cl)cc1,CC50,[2],44.6 µM (active)
O=C(CCc1nc(-c2ccccc2)no1)NCCc1ccccc1,AC50,Cytochrome P450 2C9,15.8 µM (inconclusive)
same,AC50,Cytochrome P450 2D6,39.8 µM (inconclusive)
CCC(=O)O[C@@]1(C(=O)CCl)[C@@H](C)C[C@@H]2[C@H]3CCC4=CC(=O)C=C[C@@]4(C)[C@]3(F)[C@@H](O)C[C@@]21C,AC50,Cytochrome P450 2C9,15.8 µM (inconclusive)
same,AC50,Cytochrome P450 2D6,10 µM (inconclusive)
O=C1c2cccc3c([N+](=O)[O-])ccc(c23)C(=O)N1CCc1ccccn1,CC50,[2],7.83 µM (active)
O=C(c1cccc(-c2ccc(O)cc2)c1)N1CCOCC1,IC50,Large T antigen,10.2 µM (active)
Cc1ccc(-c2noc(CCC(=O)NCCCN3CCN(c4cccc(Cl)c4)CC3)n2)cc1,CC50,[2],> 50 µM (active)
CCOc1cc(/C=N\NC(=O)CC(=O)NCCc2ccccc2)ccc1O,IC50,[6],46.5 µM (active)
same,IC50,Large T antigen,7.94 µM (active)
Cc1cc(C(C)(C)CC(C)(C)C)ccc1OCCOCC[N+](C)(C)Cc1ccccc1 [METHYLBENZETHONIUM],AC50,Cytochrome P450 1A2,12.6 µM (inconclusive)
same,AC50,Cytochrome P450 2D6,12.6 µM (inconclusive)
Cc1cc(O)nc(N/N=C/c2ccc(-c3ccc(F)cc3)o2)n1,AC50,[1],9.21 µM (active)
CCc1ccc(N(CC(=O)Nc2nc3ccc(C)cc3s2)S(=O)(=O)c2c(C)noc2C)cc1,AC50,[1],3.45 µM (active)
Cc1noc(C)c1C(=O)Nc1ccc(C#N)cc1,CC50,[2],23.4 µM (active)
CCC(C)(C)NC(=O)CSc1nc(Cc2ccccc2)nc2ccccc12,CC50,[2],> 50 µM (active)
C[C@@H]1CC[C@]2(C(=O)O)CC[C@]3(C)C(=CCC4[C@]56CC[C@@](O)(OC5)C(C)(C)C6CC[C@]43C)C2[C@H]1C (stereo not given in full),AC50,[1],5.61 µM (active)
